Earlier results, collected in patent publication US20070213270A1, “PEPTIDE YY FORMULATIONS HAVING INCREASED STABILITY AND RESISTANCE TO MICROBIAL AGENTS” (priority 2004, published 2007).
Values belong to the molecule of their own block, whether it stands above or below them.

Legend:
[1] = aqueous solution at physiologic pH
[2] = tested on: aminopeptidases
[3] = tested on: ciliary motility

Molecule: NCCN(CCN)/[N+]([O-])=N/O [diethylenetriamine/NO (DETANO), diethylenetriamine/NO]
rate of NO release [1]: approximately 20 hours

effectiveness in enzyme inhibition relative to bestatin [2]: more than 100 times | effectiveness in enzyme inhibition relative to puromycin [2]: more than 1000 times
Molecule: CC(C)CC(N)B(O)O (centres unmarked) [boro-leucine]

Molecule: CCN(CC)/[N+]([O-])=N/O.CCNCC [diethylamine/NO]
rate of NO release [1]: < 3 min

Molecule: 2-alkyl-4-hydroxyquinolines [pyo compound]
concentration producing ciliostasis / inhibiting ciliary motility [3]: 50 µg/mL
